The source of these data is US5298619A, “1,4-dihydropyridine compounds with PAF-antagonistic activity” (Alter, S.A., priority 1991, dated 1994).

For one experiment, the system named is bronchoconstriction.
Assay: not given
The conditions noted are these: doses times lower than histamine; cited from earlier work.
As for `CCCCCCCCCCCCCCCCOCC(COP(=O)([O-])OCC[N+](C)(C)C)OC(C)=O` (centres unmarked) [PAF-"acether", 1-O-hexadecyl/octodecyl-2-acetyl-sn-glycero-3-phosphocoline], the “doses inducing bronchoconstriction, relative to histamine” value is 100 times lower.

Another experiment concerns aggregation induced by 1-PAF in rabbit platelets. Put plainly: Effect on the aggregation induced by 1-PAF in rabbit platelets (washed platelets). It counts as cell-based, rabbit (male, albino, New Zealand). The conditions noted are these: Oryctolagus cuniculus, Platelet, 37° C., 5 min preincubation, 1-PAF=1.92 nM, compounds 10 to 0.1 micM, mean of three experiments in duplicate. The procedure:
STUDIES WITH WASHED PLATELETS: Aggregation
The suspensions of washed platelets were obtained from rabbit's blood (male, albino, New Zealand), anticoagulated with a solution of citric acid citrate/sodium dextrose in the ratio 1:6 (v:v).
The platelet rich plasma (PRP) was obtained by centrifuging blood samples at 100×g for 10 minutes and the platelets by centrifuging the PRP at 1,800×g for 15 minutes at 4° C. The pellet obtained in this way was washed twice with Tyrode tampon containing citric acid, PGE and aspirase, pH 6.5. The platelets so-washed were finally resuspended in Hepes-Tyrode tampon, pH 7.35 supplemented with bovine seric albumin at 0.35%; Ca++ 2 mM.
The final platelet concentration was adjusted to 300,000 platelets/mic-1. The aggregation was measured turbidimetrically using a lumiaggregometre (Chrono-Log.Co; Haventon, Pa., USA) at 37° C. under stirring at 1,100 r.p.m. The study was made in aliquots of preincubated PRP, with the compounds under study, for 5 minutes. The concentration of the antagonists was, in all cases, between 10 micM and 0.1 micM. The aggregation was induced by adding L-PAF diluted in 5 micl of Hepes/albumin tampon, the final concentration being 1.9×0,000000001. The IC50 for each compound was evaluated graphically from the dose-response curves.
The data reflected is the mean of three experiments performed in duplicate. Concentration of 1-PAF=1.92 nM.
The concentrations of compounds, in all cases, were between 10 and 0.1 micM .
Consider `COC(=O)C1=C(C)NC(C)=C(C(=O)OCCCSc2ccc(C)cc2)C1C` (centres unmarked) [Example 4, 3-(4-methylphenylthio) propyl 5-methoxycarbonyl-2,4,6-trimethyl-1,4-dihydropyridine-3-carboxylate], for which the half-maximal inhibitory concentration (IC50) was 0.85 µM.
Same read-out and setting: the value for `COC(=O)C1=C(C)NC(C)=C(C(=O)OCCOc2cccc(N(C)C)c2)C1C` (centres unmarked) [Example 135] was 2.8 µM; that for `CCOC(=O)C1=C(C)NC(C)=C(C(=O)OCCCSc2ccc(Cl)cc2)C1CC` (centres unmarked) [Example 165, 3-(4-chlorophenylthio) propyl 2,6-dimethyl-4-ethyl-5-ethoxycarbonyl-1,4-dihydropyridine-3-carboxylate] was 2.5 µM.
Turning to `COC(=O)C1=C(C)NC(C)=C(C(=O)OCCCOc2ccc(Cl)c(Cl)c2)C1C` (centres unmarked) [Example 41], it took 2.7 µM to reach half-maximal inhibition (IC50).
The compound `COC(=O)C1=C(C)NC(C)=C(C(=O)OCCOc2ccc([N+](=O)[O-])cc2)C1C` (centres unmarked) [Example 110] came in with a half-maximal inhibitory concentration (IC50) of 4.3 µM.
For the compound `CCOC(=O)C1=C(C)NC(C)=C(C(=O)OCCCSc2ccc(Cl)c(Cl)c2)C1C` (centres unmarked) [Example 46], half-maximal inhibition (IC50) was put at 1.4 µM.
Take `COC(=O)C1=C(C)NC(C)=C(C(=O)OCCCOc2cccc3ccccc23)C1C` (centres unmarked) [Example 154]: the midpoint of inhibition, the IC50, lay at 1.1 µM. This IC50 and that of the compound before are within 1.5-fold of each other.
`CCOC(=O)C1=C(C)NC(C)=C(C(=O)OCCS(=O)(=O)c2ccccc2)C1C` (centres unmarked) [Example 74] showed an IC50 of 2.8 µM.
Consider `COC(=O)C1=C(C)NC(C)=C(C(=O)OCCOc2ccc(OC)cc2)C1C` (centres unmarked) [Example 62], for which the midpoint of inhibition, the IC50, lay at 10 µM. Compared with the last compound, the IC50 is about 3.6-fold higher.
With `COC(=O)C1=C(C)NC(C)=C(C(=O)OCCOc2cccc3ccccc23)C1C` (centres unmarked) [Example 113], half-maximal inhibition (IC50) required 3 µM.
On the same count and under the same terms, the value for `COC(=O)C1=C(C)NC(C)=C(C(=O)OCCCSc2ccc(Cl)c(Cl)c2)C1C` (centres unmarked) [Example 45] was 0.15 µM; that for `COC(=O)C1=C(C)NC(C)=C(C(=O)OCCCSc2ccc(Cl)cc2)C1C` (centres unmarked) [Example 1, 3-(4-chlorophenylthio) propyl 5-methoxycarbonyl-2,4,6-trimethyl-1,4-dihydropyridine-3-carboxylate] was 0.34 µM.
On to `COC(=O)C1=C(C)NC(C)=C(C(=O)OCCCSc2ccccc2)C1C` (centres unmarked) [Example 163, 3-(phenylthio) propyl 5-methoxycarbonyl-2,4,6-trimethyl-1,4-dihydropyridine-3-carboxylate], for which the half-maximal inhibitory concentration (IC50) came to 0.41 µM.
On to `CCOC(=O)C1=C(C)NC(C)=C(C(=O)OCCCOc2ccc3ccccc3c2)C1C` (centres unmarked) [Example 152, 3-(2-naphthyloxy) propyl 5-ethoxycarbonyl-2,4,6-trimethyl-1,4-dihydropyridine-3-carboxylate], for which the IC50 was found to be 3 µM.
The same measure, in the same setting: the value for `COC(=O)C1=C(C)NC(C)=C(C(=O)OCCOc2ccc(-c3ccccc3)cc2)C1C` (centres unmarked) [Example 64] was 2.8 µM.
The compound `COC(=O)C1=C(C)NC(C)=C(C(=O)OCCCOc2ccc(OC)cc2)C1C` (centres unmarked) [Example 61] registered a 50% inhibitory concentration (IC50) of 2 µM.
`COC(=O)C1=C(C)NC(C)=C(C(=O)OCCCSc2ccc3ccccc3c2)C1C` (centres unmarked) [Example 167] yielded an IC50 of 0.4 µM.
On the same count and under the same terms, for `COC(=O)C1=C(C)NC(C)=C(C(=O)OCCCOc2ccccc2)C1C` (centres unmarked) [Example 6] the value was 3 µM; for `COC(=O)C1=C(C)NC(C)=C(C(=O)OCCCOc2ccc(C)cc2)C1C` (centres unmarked) [Example 48], 4 µM; for `CCC1C(C(=O)OC)=C(C)NC(C)=C1C(=O)OCCCSc1ccc(Cl)cc1` (centres unmarked) [Example 164, 3-(4-chlorophenylthio) propyl 2,6-dimethyl-4-ethyl-5-methoxycarbonyl-1,4-dihydropyridine-3-carboxylate], 0.32 µM.
With `COC(=O)C1=C(C)NC(C)=C(C(=O)OCCCS(=O)(=O)c2ccccc2)C1C` (centres unmarked) [Example 13], half-maximal inhibition (IC50) required 2.3 µM. This IC50 is about 7.2-fold higher than that of the compound before.
The same measure, in the same setting: the value for `CCOC(=O)C1=C(C)NC(C)=C(C(=O)OCCCOc2cccc(N(C)C)c2)C1C` (centres unmarked) [Example 133] was 2.4 µM; that for `CCOC(=O)C1=C(C)NC(C)=C(C(=O)OCCCOc2ccc(-c3ccccc3)cc2)C1C` (centres unmarked) [Example 66] was 2.4 µM.
Still for that read-out and setting: for `COC(=O)C1=C(C)NC(C)=C(C(=O)OCCCSc2ccc(NC(C)=O)cc2)C1C` (centres unmarked) [Example 30] the value was 3.1 µM.
`COC(=O)C1=C(C)NC(C)=C(C(=O)OCCOc2ccc(Cl)cc2)C1C` (centres unmarked) [Example 131] displayed an IC50 of 10 µM.
As for `COC(=O)C1=C(C)NC(C)=C(C(=O)OCCCSc2ccc([N+](=O)[O-])cc2)C1C` (centres unmarked) [Example 76], the IC50 is 2.8 µM.
Still for that read-out and setting: for `CCOC(=O)C1=C(C)NC(C)=C(C(=O)OCCCSc2ccc(Cl)cc2)C1C` (centres unmarked) [Example 82] the value was 2.8 µM; for `COC(=O)C1=C(C)NC(C)=C(C(=O)OCCS(=O)(=O)c2ccccc2)C1C` (centres unmarked) [Example 5, 2-(phenylsulphonyl) ethyl 5-methoxycarbonyl-2,4,6-trimethyl-1,4-dihydropyridine-3-carboxylate], 1.3 µM; for `COC(=O)C1=C(C)NC(C)=C(C(=O)OCCCOc2ccc(-c3ccccc3)cc2)C1C` (centres unmarked) [Example 3, 3-(4-phenylphenoxy) propyl 5-methoxycarbonyl-2,4,6-trimethyl-1,4-dihydropyridine-3-carboxylate], 0.24 µM.
Same read-out and setting: the value for `COC(=O)C1=C(C)NC(C)=C(C(=O)OCCOc2ccc(Oc3ccccc3)cc2)C1C` (centres unmarked) [Example 140] was 2 µM; that for `COC(=O)C1=C(C)NC(C)=C(C(=O)OCCCS(=O)(=O)c2ccc(C)cc2)C1C` (centres unmarked) [Example 52] was 2.7 µM.
Compound `CCOC(=O)C1=C(C)NC(C)=C(C(=O)OCCCSc2ccccc2)C1C` (centres unmarked) [Example 166] showed an IC50 of 2.6 µM.
As for `CCC1C(C(=O)OC)=C(C)NC(C)=C1C(=O)OCCCSc1ccc(C)cc1` (centres unmarked) [Example 172], the IC50 was 0.19 µM.
`COC(=O)C1=C(C)NC(C)=C(C(=O)OCCCOc2ccc(Oc3ccccc3)cc2)C1C` (centres unmarked) [Example 139]: the IC50 turned out to be 0.7 µM.
Same read-out and setting: for `COC(=O)C1=C(C)NC(C)=C(C(=O)OCCS(=O)(=O)c2ccc(C)cc2)C1C` (centres unmarked) [Example 2, 2-(4-methylphenylsulphonyl) ethyl 5-methoxycarbonyl-2,4,6-trimethyl-1,4-dihydropyridine-3-carboxylate] the value was 1.1 µM.

The next experiment deals with PAF.
Assay: not given
The settings on record: background statement; cited from earlier work.
Take `COc1ccc([C@@H]2Sc3ccccc3N(CCN(C)C)C(=O)[C@@H]2OC(C)=O)cc1` [Diltiazem]: the PAF antagonistic properties result was “present PAF antagonistic properties”.
Turning to `COC(=O)C1=C(C)NC(C)=C(C(=O)OC)C1c1ccccc1[N+](=O)[O-]` [Nifedipina], the PAF antagonistic properties entry is on record as “only show a very weak activity”.
In the case of `COc1ccc(CCN(C)CCCC(C#N)(c2cc(OC)c(OC)c(OC)c2)C(C)C)cc1OC` (centres unmarked) [Gallopamil], the PAF antagonistic properties result was “present PAF antagonistic properties”.

The experiment is the same for the next values; noted with them: fold higher than those inhibiting calcium flow in other cells; cited from earlier work.
`COC(=O)C1=C(C)NC(C)=C(C(=O)OC)C1c1ccccc1[N+](=O)[O-]` [Nifedipina]: the “concentrations needed to obtain an effect, relative to those inhibiting calcium flow in other cells” value is 1,000,000.

Staying with this experiment, now noted: times greater than the specific antagonists of the PAF-"acether"; cited from earlier work.
With `COC(=O)C1=C(C)NC(C)=C(C(=O)OC)C1c1ccccc1[N+](=O)[O-]` [Nifedipina], the “concentrations needed to obtain an effect, relative to the specific antagonists of the PAF-"acether"” value was ≥ 1,000 times.

One may read the IC50 as the concentration that gives 50% inhibition. A low value points to inhibition by little substance.
